The target of data set [1] is wildtype CFTR (Homo sapiens, UniProt P13569). The data set is described as follows: YFP fluorescence assay of CFTR-mediated I^− transport in FRT cells. The format is cell-based. Details: expressed in transfected cells; host or cells: Fischer rat thyroid (FRT) cells. The settings on record: relative to CFTRinh-172 = 1.0. The procedure: FIG. 1A is a schematic representation of a screening technique used for detection of CFTR inhibitors. CFTR was maximally stimulated by multiple agonists in stably transfected epithelial cells co-expressing human CFTR and a yellow fluorescent protein (YFP) having Cl^−/I^− sensitive fluorescence. After addition of a test compound, I^− influx was induced by adding an I^− containing solution.
Sequence of wildtype CFTR (P13569 whole entry): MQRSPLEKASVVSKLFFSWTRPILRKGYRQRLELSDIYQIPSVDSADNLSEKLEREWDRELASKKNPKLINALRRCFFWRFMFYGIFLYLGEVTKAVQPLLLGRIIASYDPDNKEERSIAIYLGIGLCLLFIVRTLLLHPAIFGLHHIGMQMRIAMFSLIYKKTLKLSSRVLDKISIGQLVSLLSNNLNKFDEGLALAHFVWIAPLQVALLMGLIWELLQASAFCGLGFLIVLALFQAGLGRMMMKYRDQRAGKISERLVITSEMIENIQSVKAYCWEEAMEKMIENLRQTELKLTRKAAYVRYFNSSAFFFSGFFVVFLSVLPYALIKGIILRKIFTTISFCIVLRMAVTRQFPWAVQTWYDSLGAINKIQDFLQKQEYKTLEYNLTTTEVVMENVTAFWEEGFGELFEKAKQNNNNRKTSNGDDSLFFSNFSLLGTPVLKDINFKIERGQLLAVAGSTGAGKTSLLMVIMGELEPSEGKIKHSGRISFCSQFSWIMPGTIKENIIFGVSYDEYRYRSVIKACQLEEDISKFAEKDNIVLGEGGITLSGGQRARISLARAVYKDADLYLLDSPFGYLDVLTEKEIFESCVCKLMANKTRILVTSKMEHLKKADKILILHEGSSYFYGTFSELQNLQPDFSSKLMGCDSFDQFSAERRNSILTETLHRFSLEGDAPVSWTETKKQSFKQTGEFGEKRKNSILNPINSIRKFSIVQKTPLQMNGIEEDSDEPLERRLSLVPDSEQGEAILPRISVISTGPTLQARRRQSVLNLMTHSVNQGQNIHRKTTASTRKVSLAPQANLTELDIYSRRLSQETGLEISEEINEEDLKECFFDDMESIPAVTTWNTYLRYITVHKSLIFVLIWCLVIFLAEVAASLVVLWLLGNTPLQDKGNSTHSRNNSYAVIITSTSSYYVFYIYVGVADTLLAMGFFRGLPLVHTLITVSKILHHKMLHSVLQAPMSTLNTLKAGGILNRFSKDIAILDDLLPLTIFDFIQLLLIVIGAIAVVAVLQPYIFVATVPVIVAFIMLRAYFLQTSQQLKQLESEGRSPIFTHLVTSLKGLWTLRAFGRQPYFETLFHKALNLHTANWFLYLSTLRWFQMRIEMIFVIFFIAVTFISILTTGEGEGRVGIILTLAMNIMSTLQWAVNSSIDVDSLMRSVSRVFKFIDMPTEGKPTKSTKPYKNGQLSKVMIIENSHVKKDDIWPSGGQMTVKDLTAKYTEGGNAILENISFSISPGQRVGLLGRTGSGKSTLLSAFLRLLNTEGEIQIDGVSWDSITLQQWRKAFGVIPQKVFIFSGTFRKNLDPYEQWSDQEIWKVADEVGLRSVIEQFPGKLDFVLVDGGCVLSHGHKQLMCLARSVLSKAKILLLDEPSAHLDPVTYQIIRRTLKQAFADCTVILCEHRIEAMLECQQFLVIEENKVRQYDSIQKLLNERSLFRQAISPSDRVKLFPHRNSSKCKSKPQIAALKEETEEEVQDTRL
Cells were plated in 96-well black-walled microplates (Corning Costar) at a density of 20,000 cells per well in Coon's modified F12 medium supplemented with 5% fetal calf serum, 2 mM L-glutamine, 100 U/mL penicillin, and 100 μg/mL streptomycin. Assays were done at 48 hours after plating at which time cells were just confluent (˜40,000 cells per well).
Assays were done using a customized screening system (Beckman) consisting of a 3-meter robotic arm, CO2 incubator, plate washer, liquid handling workstation, bar code reader, delidding station, and two FluoStar fluorescence plate readers (BMG Labtechnologies, Offenburg, Germany), each equipped with two syringe pumps and HQ500/20X (500±10 nm) excitation and HQ535/30M (535±15 nm) emission filters (Chroma). The robotic system was integrated using SAMI version 3.3 software (Beckman) modified for two plate readers. Custom software was written in VBA (Visual Basic for Applications) to compute baseline-subtracted, normalized fluorescence slopes (giving halide influx rates) from stored data files.
The assay was set-up by loading the incubator (37° C., 90% humidity, 5% CO2) with 40-60 96-well plates containing the FRT cells, and loading a carousel with 96-well plates containing test compounds and disposable plastic pipette tips. To initiate the assay, each well of a 96-well plate was washed 3 times in PBS (300 μL/wash), leaving 50 μL PBS. Ten μL of a CFTR-activating cocktail (5 μM forskolin, 100 μM IBMX, 25 μM apigenin in PBS) was added, and after 5 min one test compound (0.5 μL of 1 mM DMSO solution) was added to each well to give 10 μM final concentration. After 10 min, 96-well plates were transferred to a plate reader for fluorescence assay. Each well was assayed individually for CFTR-mediated I^− transport by recording fluorescence continuously (200 ms per point) for 2 s (baseline) and then for 12 s after rapid (<0.5 s) addition of 160 μL of isosmolar PBS in which 137 mM Cl^− was replaced by I^−.
The primary screening technique used to identify the compounds of the invention was designed to identify inhibitors of CFTR Cl^− conductance by direct CFTR-inhibitor interaction. CFTR was pre-stimulated in CFTR-expressing FRT cells by an activating cocktail containing forskolin, IBMX and apigenin, as shown schematically in FIG. 1A. The activation of CFTR by multiple mechanisms (cAMP elevation, phosphodiesterase inhibition, and direct CFTR binding) allowed identification of inhibitors that blocked the CFTR Cl^− transporting pathway directly rather than more proximal step(s) in a signaling pathway. The FRT cells co-expressed a yellow fluorescent protein-based Cl^−/I^− sensor that provided a quantitative fluorescence read-out of inhibition potency (See, e.g., Jayaraman et al., 2000, J. Biol. Chem. 275:6047-6050; Galietta et al., 2001, Am. J. Physiol. 281:C1734-C1742.). After CFTR pre-stimulation and compound addition, cells were subjected to an inwardly-directed I^− gradient to drive I^− influx and produce decreasing fluorescence. Each assay consisted of recording baseline fluorescence for 2 seconds, followed by 12 seconds of continuous recording of fluorescence after rapid addition of the I^− containing solution. Compounds were tested separately at 10 μM concentration in a 96-well format utilizing a fully-automated high-throughput screening apparatus (see Example 2 below).

Data set [2] relates to Caco-2 monolayers. The settings on record: literature values, Stenberg et al.; cited from earlier work.
Data set [3] addresses T1, MDR-1 (Homo sapiens, UniProt P08183).
T1 construct: endogenous in cells; host or cells: 9HTEo-/Dx cells
In words: MDR-1 activity, ^3H-vincristine accumulation in 9HTEo-/Dx cells. Format: cell-based. The settings on record: 100 μM.

Each structure is given as a SMILES string.

T1 sequence (P08183 whole entry): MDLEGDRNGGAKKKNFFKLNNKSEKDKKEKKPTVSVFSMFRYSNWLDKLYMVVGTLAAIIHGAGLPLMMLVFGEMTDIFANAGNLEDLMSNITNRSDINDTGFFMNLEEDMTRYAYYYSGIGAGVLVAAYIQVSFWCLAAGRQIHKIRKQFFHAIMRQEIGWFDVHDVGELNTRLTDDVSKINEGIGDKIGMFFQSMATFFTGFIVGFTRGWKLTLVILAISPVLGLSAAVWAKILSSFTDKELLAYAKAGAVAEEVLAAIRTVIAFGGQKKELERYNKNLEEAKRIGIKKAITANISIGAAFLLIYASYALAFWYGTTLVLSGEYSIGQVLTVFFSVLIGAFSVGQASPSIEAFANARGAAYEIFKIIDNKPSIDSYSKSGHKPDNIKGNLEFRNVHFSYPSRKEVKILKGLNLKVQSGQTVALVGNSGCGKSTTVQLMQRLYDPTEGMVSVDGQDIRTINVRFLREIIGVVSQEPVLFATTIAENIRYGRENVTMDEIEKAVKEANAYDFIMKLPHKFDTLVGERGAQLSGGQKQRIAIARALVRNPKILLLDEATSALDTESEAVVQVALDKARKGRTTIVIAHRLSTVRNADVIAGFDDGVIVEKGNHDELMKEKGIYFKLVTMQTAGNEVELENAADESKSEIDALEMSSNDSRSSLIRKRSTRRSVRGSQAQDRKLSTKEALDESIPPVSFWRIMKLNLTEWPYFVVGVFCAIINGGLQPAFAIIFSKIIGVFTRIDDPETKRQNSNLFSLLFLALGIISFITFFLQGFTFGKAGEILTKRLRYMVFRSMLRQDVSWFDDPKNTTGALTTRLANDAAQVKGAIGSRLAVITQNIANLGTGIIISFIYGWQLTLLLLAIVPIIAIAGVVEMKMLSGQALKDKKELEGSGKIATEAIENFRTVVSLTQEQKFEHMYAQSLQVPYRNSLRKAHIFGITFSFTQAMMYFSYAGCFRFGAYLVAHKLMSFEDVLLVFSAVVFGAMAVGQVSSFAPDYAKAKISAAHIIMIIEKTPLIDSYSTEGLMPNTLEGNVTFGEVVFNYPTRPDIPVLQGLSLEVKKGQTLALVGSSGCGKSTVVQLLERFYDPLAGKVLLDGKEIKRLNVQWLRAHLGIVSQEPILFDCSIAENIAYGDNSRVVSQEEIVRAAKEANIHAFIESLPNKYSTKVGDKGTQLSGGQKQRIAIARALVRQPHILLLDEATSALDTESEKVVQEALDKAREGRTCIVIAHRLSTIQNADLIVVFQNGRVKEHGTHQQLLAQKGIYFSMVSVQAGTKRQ

Take `O=C1/C(=C/c2cc(Br)c(O)c([N+](=O)[O-])c2)SC(=S)N1c1cccc(C(F)(F)F)c1` [CFTRinh-236, 3-[(3-trifluoromethyl)phenyl]-5-[(3-bromo-4-hydroxy-5-nitrophenyl)methylene]-2-thioxo-4-thiazolidinone]: in data set [1], the “relative potency (CFTR inhibition)” value came out at 0.1. Same read-out and setting: under `O=C(O)c1ccccc1C=C1SC(=S)N(c2ccccc2C(F)(F)F)C1=O` [a=2, b=2, 3-[(a-trifluoromethyl)phenyl]-5-[(b-carboxyphenyl)methylene]-2-thioxo-4-thiazolidinone] stands 0.69.

`O=C(O)c1ccccc1C=C1SC(=S)N(c2ccccc2C(F)(F)F)C1=O` [3, 3, 3-[(a-trifluoromethyl)phenyl]-5-[(b-carboxyphenyl)methylene]-2-thioxo-4-thiazolidinone]: the “relative potency (CFTR inhibition)” value in data set [1] is on record as 0.90. With `CCCc1nn(C)c2c(=O)[nH]c(-c3cc(S(=O)(=O)N4CCN(C)CC4)ccc3OCC)nc12` [sildenafil], in data set [2], the permeability coefficient is 48 ×10⁻⁶ cm/s. For `COc1ccc(CCN(C)CCCC(C#N)(c2ccc(OC)c(OC)c2)C(C)C)cc1OC` (stereo not shown) [verapamil, reference compound], in data set [3], the vincristine accumulation result was “strongly increased”. Regarding `O=C(O)c1ccccc1C=C1SC(=S)N(c2ccccc2C(F)(F)F)C1=O` [3, 2, 3-[(a-trifluoromethyl)phenyl]-5-[(b-carboxyphenyl)methylene]-2-thioxo-4-thiazolidinone], the “relative potency (CFTR inhibition)” value in data set [1] was 0.74. For `O=C1/C(=C/c2cc(Br)c(O)c(Br)c2)SC(=S)N1c1cccc(C(F)(F)F)c1` [CFTRinh-214, 3-[(3-trifluoromethyl)phenyl]-5-[(3,5-dibromo-4-hydroxyphenyl)methylene]-2-thioxo-4-thiazolidinone], the “relative potency (CFTR inhibition)” value in data set [1] came to 0.1. In the case of `CC(C)NCC(O)COc1cccc2[nH]ccc12` (stereo not shown) [pindolol], the permeability coefficient in data set [2] is 36 ×10⁻⁶ cm/s. As for `O=C1/C(=C/c2ccc(O)c(O)c2)SC(=S)N1c1cccc(C(F)(F)F)c1` [CFTRinh-185, 3-[(3-trifluoromethyl)phenyl]-5-[(3,4-dihydroxyphenyl)methylene]-2-thioxo-4-thiazolidinone], in data set [1], the “relative potency (CFTR inhibition)” value turned out to be 0.2. Regarding `O=C(O)c1ccccc1C=C1SC(=S)N(c2ccccc2C(F)(F)F)C1=O` [2, 4, 3-[(a-trifluoromethyl)phenyl]-5-[(b-carboxyphenyl)methylene]-2-thioxo-4-thiazolidinone], the “relative potency (CFTR inhibition)” value in data set [1] is reported as 0.66.

Regarding `O=C(O)c1ccccc1C=C1SC(=S)N(c2ccccc2C(F)(F)F)C1=O` [4, 3, 3-[(a-trifluoromethyl)phenyl]-5-[(b-carboxyphenyl)methylene]-2-thioxo-4-thiazolidinone], the “relative potency (CFTR inhibition)” value in data set [1] is recorded as 0.64. Still for that read-out and setting: under `O=C1/C(=C/c2ccc([N+](=O)[O-])cc2)SC(=S)N1c1cccc(C(F)(F)F)c1` [CFTRinh-020, 3-[(3-trifluoromethyl)phenyl]-5-[(4-nitrophenyl)methylene]-2-thioxo-4-thiazolidinone] stands 0.2. On the same count and under the same terms, under `O=C(O)c1ccccc1C=C1SC(=S)N(c2ccccc2C(F)(F)F)C1=O` [4, 4, 3-[(a-trifluoromethyl)phenyl]-5-[(b-carboxyphenyl)methylene]-2-thioxo-4-thiazolidinone] stands 0.56.

For the compound `O=C(O)c1ccccc1C=C1SC(=S)N(c2ccccc2C(F)(F)F)C1=O` [2, 3, 3-[(a-trifluoromethyl)phenyl]-5-[(b-carboxyphenyl)methylene]-2-thioxo-4-thiazolidinone], the “relative potency (CFTR inhibition)” value in data set [1] was determined as 0.70. Consider `O=C(O)Oc1ccc(/C=C2\SC(=S)N(c3cccc(C(F)(F)F)c3)C2=O)cc1` [CFTRinh-029, 3-[(3-trifluoromethyl)phenyl]-5-[(4-oxycarboxyphenyl)methylene]-2-thioxo-4-thiazolidinone], for which, in data set [1], the “relative potency (CFTR inhibition)” value stood at 0.3. For `O=C(O)c1ccccc1C=C1SC(=S)N(c2ccccc2C(F)(F)F)C1=O` [4, 2, 3-[(a-trifluoromethyl)phenyl]-5-[(b-carboxyphenyl)methylene]-2-thioxo-4-thiazolidinone], the “relative potency (CFTR inhibition)” value in data set [1] was determined as 0.67.

The values are drawn from US8058295B2, “Cystic fibrosis transmembrane conductance regulator protein inhibitors and uses thereof” (The Regents of the University of California, priority 2002, dated 2011).
